Assay results from BindingDB's records for doi:10.1021/jm021084k (2003).

Tests used:
[1] = target: Histamine H1 receptor (Cavia porcellus, UniProt P31389); test: Potency at histamine H1 receptor subtype, was tested on guinea pig right ileum
[2] = target: Histamine H3 receptor (Cavia porcellus, UniProt Q9JI35); test: Potency at histamine H3 receptor subtype, was tested on guinea pig right ileum
[3] = target: Histamine H2 receptor (Cavia porcellus, UniProt P47747); test: Potency at histamine H2 receptor subtype, was tested on guinea pig right atrium
Chain of Histamine H2 receptor (P47747 whole entry): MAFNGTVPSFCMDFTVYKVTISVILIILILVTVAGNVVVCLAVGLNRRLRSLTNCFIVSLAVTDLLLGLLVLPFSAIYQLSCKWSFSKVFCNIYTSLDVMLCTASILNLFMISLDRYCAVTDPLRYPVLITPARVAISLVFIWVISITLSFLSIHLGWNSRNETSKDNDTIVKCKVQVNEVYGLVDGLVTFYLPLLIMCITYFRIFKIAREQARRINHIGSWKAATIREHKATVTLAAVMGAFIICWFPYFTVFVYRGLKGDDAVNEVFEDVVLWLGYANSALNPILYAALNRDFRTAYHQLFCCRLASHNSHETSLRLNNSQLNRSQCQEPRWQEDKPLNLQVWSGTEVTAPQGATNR

Chain of Histamine H1 receptor (P31389 whole entry): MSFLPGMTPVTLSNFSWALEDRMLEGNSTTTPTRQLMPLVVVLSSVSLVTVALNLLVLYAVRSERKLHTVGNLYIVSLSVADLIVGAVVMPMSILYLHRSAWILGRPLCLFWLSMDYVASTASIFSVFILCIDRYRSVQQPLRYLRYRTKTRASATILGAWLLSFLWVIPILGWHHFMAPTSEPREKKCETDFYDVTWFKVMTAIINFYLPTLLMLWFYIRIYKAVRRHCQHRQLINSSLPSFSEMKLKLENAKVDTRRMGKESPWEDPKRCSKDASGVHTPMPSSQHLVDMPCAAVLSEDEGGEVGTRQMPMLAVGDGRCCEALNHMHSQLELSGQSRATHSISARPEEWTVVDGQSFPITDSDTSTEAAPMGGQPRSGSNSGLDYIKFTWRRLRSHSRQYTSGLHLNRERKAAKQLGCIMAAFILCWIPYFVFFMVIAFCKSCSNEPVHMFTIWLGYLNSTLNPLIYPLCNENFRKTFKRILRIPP
Chain of Histamine H3 receptor (Q9JI35 whole entry): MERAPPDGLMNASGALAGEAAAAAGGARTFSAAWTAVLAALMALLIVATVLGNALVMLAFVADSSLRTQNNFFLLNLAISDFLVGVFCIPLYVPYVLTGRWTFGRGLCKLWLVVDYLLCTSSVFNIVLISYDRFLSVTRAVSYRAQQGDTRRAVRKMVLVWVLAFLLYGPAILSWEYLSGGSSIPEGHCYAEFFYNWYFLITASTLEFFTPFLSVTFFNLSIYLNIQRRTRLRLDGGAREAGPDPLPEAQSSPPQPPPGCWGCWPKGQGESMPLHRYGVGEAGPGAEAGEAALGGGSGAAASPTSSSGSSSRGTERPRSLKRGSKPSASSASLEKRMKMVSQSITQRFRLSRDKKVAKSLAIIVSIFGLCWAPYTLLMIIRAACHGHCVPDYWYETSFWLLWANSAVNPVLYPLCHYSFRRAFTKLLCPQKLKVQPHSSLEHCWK

With CC(N=O)c1ccc(OCc2ccc(CN3CCCCC3)cc2)cc1 (stereo not drawn) [1-[4-(4-Piperidin-1-ylmethyl-benzyloxy)-phenyl]-ethanone oxime] the Kd [1] was 7.94 µM, the Kd [2] was 0.0851 µM and the Kd [3] was 14.1 µM.
